# Laboratory results: paper PMC2933744 (Biochemistry, 2008)
# What was measured:
# hPRMT1 [1] = target: T1, hPRMT1 (Homo sapiens, UniProt Q99873); assay: Initial velocity studies; type: biochemical; details: for K(SAM) (Michaelis constant): pH 8.0, 37°C, fit to eq 2
# hPRMT1 [2] = target: T1, hPRMT1; assay: Dead-end analogue inhibition, AcH4-21 and SAM as substrates; type: biochemical; details: pH 8.0, 37°C
# T1 sequence (Q99873 whole entry): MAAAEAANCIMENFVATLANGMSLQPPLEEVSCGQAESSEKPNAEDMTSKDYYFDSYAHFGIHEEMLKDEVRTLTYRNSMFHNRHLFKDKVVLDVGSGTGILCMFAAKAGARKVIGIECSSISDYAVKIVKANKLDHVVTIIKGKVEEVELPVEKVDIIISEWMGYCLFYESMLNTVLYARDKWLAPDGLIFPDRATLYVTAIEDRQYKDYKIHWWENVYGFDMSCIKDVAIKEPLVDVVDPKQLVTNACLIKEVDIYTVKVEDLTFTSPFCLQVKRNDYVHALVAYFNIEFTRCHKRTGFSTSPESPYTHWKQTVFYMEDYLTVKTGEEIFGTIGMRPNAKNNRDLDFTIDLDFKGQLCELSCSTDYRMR
Structure (SMILES),"K(SAM) (Michaelis constant) (hPRMT1 [1]; AcH4-21 varied, fixed SAM 1, 2.5, 7.5 µM)",Initial velocity pattern (double reciprocal plots) (hPRMT1 [1]; SAM and peptide varied at various fixed concentrations of the other substrate),"K(SAM) (Michaelis constant) (hPRMT1 [1]; SAM varied, fixed AcH4-21 2.5, 5, 25 µM)","Kii (intercept Ki) (hPRMT1 [2]; AcH4-21 varied, fixed [SAM] = 15 µM, mixed fit eq 5)","Inhibition pattern (hPRMT1 [2]; SAM varied, fixed AcH4-21 10 µM, 212 nM hPRMT1, at least duplicate)"
"C[S+](CC[C@H](N)C(=O)[O-])C[C@H]1O[C@@H](n2cnc3c(N)ncnc32)[C@H](O)[C@@H]1O (stereo partly drawn) [SAM, S-adenosyl-L-methionine]",8.35 ± 2.11,intersect in the second quadrant,21.1 ± 4.0,–,–
Nc1ncnc2c1ncn2[C@@H]1O[C@H](C[C@@H](N)CC[C@H](N)C(=O)O)[C@@H](O)[C@H]1O [Sinefungin],–,–,–,470 ± 190 nM,Competitive
